Some test systems named below: SNB-75 CNS; OVCAR-4 ovarian; UO-31 renal; MALME-3M melanoma; SF-268 CNS; NCI-H23 lung; RPMI-8226 leukemia; NCI-H226 lung; HOP-62 NSCLC; HL-60(TB) leukemia; SK-MEL-28 melanoma; SK-MEL-5 melanoma; A498 renal; CCRF-CEM leukemia; TK-10 renal; HS 578T breast; DU-145 prostate; SR leukemia; MDA-N.
Holding throughout (test): NCI tumour cell line growth inhibition, 48 h

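Results reflect a 48-hour exposure of cells in 96-well plates to compound at five concentrations. TGI marks complete inhibition of growth.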 Some results are limits rather than exact numbers.

On to `C=C1C(=O)O[C@@H]2[C@H]3O[C@]3(C)CCC=C(C)CC[C@@H]12`, for which the TGI was found to be 123 µM in the assay on SNB-75 CNS; 45.3 µM in the assay on OVCAR-4 ovarian; 91.9 µM in the assay on UO-31 renal; 25.3 µM in the assay with MALME-3M melanoma; 62.6 µM in the assay on SF-268 CNS; 52.7 µM with NCI-H23 lung. In addition, the TGI with RPMI-8226 leukemia was determined as 77.2 µM; in the assay on NCI-H226 lung, 49.1 µM; in the assay on HOP-62 NSCLC it was 102 µM; in the assay on HL-60(TB) leukemia, 23.4 µM; in the assay on SK-MEL-28 melanoma, 44.3 µM; in the assay on SK-MEL-5 melanoma, 49.1 µM. Further, the values for the TGI with A498 renal and in the assay with CCRF-CEM leukemia were 13.3 µM and 59.9 µM, respectively.

In the case of `Cc1ccc(Nc2nc(=S)[nH]c3[nH]ncc23)cc1`, the TGI in the assay on TK-10 renal, in the assay with SNB-75 CNS, in the assay with OVCAR-4 ovarian, in the assay with UO-31 renal, in the assay with MALME-3M melanoma and in the assay on HS 578T breast was > 100 µM throughout. Further, the TGI in the assay on SF-268 CNS, in the assay on NCI-H23 lung, with RPMI-8226 leukemia, in the assay on NCI-H226 lung, in the assay on DU-145 prostate and in the assay with HOP-62 NSCLC was > 100 µM each time. For the same molecule, the TGI in the assay on SR leukemia, in the assay with HL-60(TB) leukemia, in the assay with SK-MEL-28 melanoma, in the assay with SK-MEL-5 melanoma, in the assay on A498 renal and in the assay with CCRF-CEM leukemia was > 100 µM throughout.

As for `CCOC(=O)C1C(=O)CC(O)(OCC)C(C(=O)OCC)C1c1ccc(OC)cc1` (stereo unspecified), the TGI in the assay with TK-10 renal, with SNB-75 CNS, with OVCAR-4 ovarian, in the assay with UO-31 renal, with MALME-3M melanoma and with SF-268 CNS was > 100 µM in each case. For the same molecule, the TGI in the assay with NCI-H23 lung, in the assay on NCI-H226 lung, in the assay on DU-145 prostate, in the assay on MDA-N, in the assay with HOP-62 NSCLC and in the assay on SR leukemia was > 100 µM each time. For the same molecule, the TGI in the assay with HL-60(TB) leukemia, in the assay with SK-MEL-28 melanoma, with SK-MEL-5 melanoma, with A498 renal and with CCRF-CEM leukemia was > 100 µM each time.

`CCCCCC(CN1CCOCC1)C(=O)/C=C/c1ccccc1` (stereo unspecified): the TGI with SNB-75 CNS came out at 20 µM; in the assay on OVCAR-4 ovarian, 8.19 µM; in the assay on UO-31 renal, 20.1 µM; with MALME-3M melanoma it was 6.42 µM; with SF-268 CNS, 5.02 µM; in the assay with NCI-H23 lung it was 11.9 µM. Moreover, the TGI turned out to be 9.03 µM in the assay on RPMI-8226 leukemia; 9.31 µM in the assay with NCI-H226 lung; 16.9 µM in the assay on HOP-62 NSCLC; 8.5 µM in the assay on SR leukemia; 5.42 µM in the assay with HL-60(TB) leukemia; 19.1 µM in the assay with SK-MEL-28 melanoma. Besides, the TGI worked out at 3.42 µM in the assay on SK-MEL-5 melanoma and 6.72 µM in the assay on CCRF-CEM leukemia.

Regarding `CN(C)c1ccc(-c2cc(=O)c3ccccc3[nH]2)cc1`, the TGI in the assay on TK-10 renal, with UO-31 renal, with MALME-3M melanoma, with SF-268 CNS, in the assay on NCI-H23 lung and in the assay with RPMI-8226 leukemia was > 100 µM each time. Besides, the TGI in the assay with NCI-H226 lung, in the assay with HOP-62 NSCLC, in the assay with SR leukemia, with HL-60(TB) leukemia, in the assay on SK-MEL-28 melanoma and in the assay with CCRF-CEM leukemia was > 100 µM in each case.

Consider `O=C1C=CC(=O)c2c1ccc1c3ccccc3n(-c3ccccn3)c21`, for which the TGI with TK-10 renal is 30.5 µM; in the assay with SNB-75 CNS, > 100 µM; in the assay with OVCAR-4 ovarian, 29.8 µM; with UO-31 renal, 35.8 µM; in the assay on MALME-3M melanoma it was 32.7 µM; in the assay on SF-268 CNS, > 100 µM. Moreover, the TGI with NCI-H23 lung was > 100 µM; in the assay with RPMI-8226 leukemia, > 100 µM; with NCI-H226 lung it was 82.7 µM; in the assay on HL-60(TB) leukemia, 31.4 µM; in the assay on SK-MEL-28 melanoma it was > 100 µM; in the assay with CCRF-CEM leukemia, > 100 µM.

As to `c1ccc2c(c1)ccc1nc(-c3ccc4c(c3)OCO4)c3c(c12)CCCC3`, the TGI with SNB-75 CNS was > 100 µM; in the assay on OVCAR-4 ovarian it was 64.8 µM; in the assay on UO-31 renal, 90.8 µM; in the assay on MALME-3M melanoma, 63.2 µM; in the assay with HS 578T breast, 28.5 µM; in the assay with SF-268 CNS, 88.1 µM. Further, the TGI with NCI-H23 lung, with RPMI-8226 leukemia, in the assay with NCI-H226 lung, in the assay on MDA-N, in the assay on HOP-62 NSCLC and with SK-MEL-28 melanoma was > 100 µM in each case. For the same molecule, the TGI in the assay on A498 renal is 72.9 µM; with CCRF-CEM leukemia it was > 100 µM.

Take `Cc1c(N2C(=O)/C(=C/C=C/c3ccccc3)N=C2c2ccccc2)c(=O)n(-c2ccccc2)n1C`: the TGI in the assay on TK-10 renal was > 100 µM; in the assay on SNB-75 CNS it was 32.1 µM; with OVCAR-4 ovarian, 50.3 µM; with UO-31 renal, 32.6 µM; with MALME-3M melanoma, 92.2 µM; in the assay with SF-268 CNS, 68.9 µM. For the same molecule, the TGI in the assay on NCI-H23 lung was 61.1 µM; in the assay with RPMI-8226 leukemia it was 47.6 µM; in the assay with NCI-H226 lung, 58.4 µM; in the assay with DU-145 prostate it was > 100 µM; in the assay on MDA-N, 38.3 µM; with HOP-62 NSCLC, 85.3 µM. Further, the TGI in the assay on SR leukemia turned out to be 47.1 µM; in the assay with HL-60(TB) leukemia, 35.7 µM; in the assay with SK-MEL-5 melanoma, 30.8 µM; with CCRF-CEM leukemia, 99.2 µM.

Regarding `NC(=S)/N=C/c1c(O)c2ccccc2oc1=O`, the TGI in the assay with TK-10 renal is > 100 µM; with SNB-75 CNS it was 87 µM; in the assay with OVCAR-4 ovarian, > 100 µM; with UO-31 renal it was > 100 µM; with MALME-3M melanoma it was 99.4 µM; in the assay on SF-268 CNS, > 100 µM. Also, the TGI in the assay with NCI-H23 lung, in the assay with RPMI-8226 leukemia, in the assay on NCI-H226 lung, in the assay with HL-60(TB) leukemia, with SK-MEL-28 melanoma and with SK-MEL-5 melanoma was > 100 µM each time. Further, the TGI in the assay on A498 renal and in the assay on CCRF-CEM leukemia was > 100 µM in each case.

Values taken from PubChem BioAssay (NCI).
